By melting point is commonly meant the temperature, or range, at which the solid turns liquid.

The source of these data is patent US7176222B2, “Syntheses of ureas” (Cytokinetics, Inc., priority 2004, dated 2007).

In the case of `CC(=O)N1CCC[C@@H](Oc2cc(F)cc(NC(=O)Nc3cccnc3)c2)C1` [Example 1, (R)-1-[3-(1-Acetyl-piperidin-3-yloxy)-5-fluoro-phenyl]-3-pyridin-3-yl-urea], the melting point stood at 145 °C.
